# pIC50: −log10 of the molar value.
# Target: T1, HIV-integrase (Human immunodeficiency virus type 1 group M subtype B, UniProt P12497)
# T1 construct: Recombinant integrase (0.26 ng) was incubated with the beads
# Assay: HIV-Integrase Inhibition Activity (SPA strand transfer assay)
# Format: biochemical
# Details: recombinant integrase, SPA beads, P33 labeled target DNA; read-out: Activity (IC50 class, HIV-integrase inhibition)
# Description: HIV-Integrase InhibitionActivity. To evaluate in-vitro activity against HIV-integrase, 5 pmole of biotin labeled substrate DNA was bound to 100 μg of Streptavidin coated PVT SPA beads (Amersham Pharmacia Biotech). Recombinant integrase (0.26 ng) was incubated with the beads for 90 min at 37° C. Unbound enzyme was removed by washing the complex followed by addition of inhibitors and 0.1 fmol of P33 labeled target DNA. The reaction was stopped by adding EDTA to a final concentration of 10 mM. Samples were counted in TopCountNXT (Packard) and the CPM was used as a measure of integration. The reaction condition was as described in A. Engelman and R. Craigie, J. Virol. 69, 5908-5911 (1995). The sequences of substrate and target DNA were described in Nucleic Acid Research 22, 1121-1122 (1994). Activity equal to A refers to a compound having IC50=0.002 to 0.10 μM while B and C denote compounds having IC50=0.1 to 1.0 μM and IC50≧1.0 μM respectively.
row,Compound,pIC50
1,"Cc1ncsc1CNC(=O)c1nc2n(c(=O)c1O)CCOC2(C)C [Example 23, Pyrimido[2,1-c][1,4]oxazine-2-carboxamide, 4,6,7,9-tetrahydro-3-hydroxy-9,9-dimethyl-N-[(4-methyl-5-thiazolyl)methyl]-4-oxo-]",≤ 6.00
2,"Cc1cc(CNC(=O)c2nc3n(c(=O)c2O)CCOC3(C)C)nn1C(C)(C)C [Example 10, Pyrimido[2,1-c][1,4]oxazine-2-carboxamide, N-[[1-(1,1-dimethylethyl)-5-methyl-1H-pyrazol-3-yl]methyl]-4,6,7,9-tetrahydro-3-hydroxy-9,9-dimethyl-4-oxo-]",7.00 to 8.70
3,"Cn1c(CNC(=O)c2nc3n(c(=O)c2O)CCOC3(C)C)cc2ccccc21 [Example 11, Pyrimido[2,1-c][1,4]oxazine-2-carboxamide, 4,6,7,9-tetrahydro-3-hydroxy-9,9-dimethyl-N-[(1-methyl-1H-indol-2-yl)methyl]-4-oxo-]",7.00 to 8.70
4,"CC1(C)OCCn2c1nc(C(=O)NCc1cnn(-c3ccccc3)c1)c(O)c2=O [Example 6, Pyrimido[2,1-c][1,4]oxazine-2-carboxamide, 4,6,7,9-tetrahydro-3-hydroxy-9,9-dimethyl-4-oxo-N-[(1-phenyl-1H-pyrazol-4-yl)methyl]-]",≤ 6.00
5,"Cc1cc(CNC(=O)c2nc3n(c(=O)c2O)CCOC3(C)C)nn1C(F)F [Example 18, Pyrimido[2,1-c][1,4]oxazine-2-carboxamide, N-[[1-(difluoromethyl)-5-methyl-1H-pyrazol-3-yl]methyl]-4,6,7,9-tetrahydro-3-hydroxy-9,9-dimethyl-4-oxo-]",7.00 to 8.70
6,"CC1(C)OCCn2c1nc(C(=O)NCCc1c[nH]c3ccc(F)cc13)c(O)c2=O [Example 14, Pyrimido[2,1-c][1,4]oxazine-2-carboxamide, N-[2-(5-fluoro-1H-indol-3-yl)ethyl]-4,6,7,9-tetrahydro-3-hydroxy-9,9-dimethyl-4-oxo-]",7.00 to 8.70
7,"CC(=O)n1nc(CNC(=O)c2nc3n(c(=O)c2O)CCOC3(C)C)c2ccccc21 [Example 81, N-((1-Acetyl-1H-indazol-3-yl)methyl)-3-hydroxy-9,9-dimethyl-4-oxo-4,6,7,9-tetrahydropyrimido[2,1-c][1,4]oxazine-2-carboxamide]",7.00 to 8.70
8,"Cc1cc(CNC(=O)c2nc3n(c(=O)c2O)CCOC3(C)C)sc1C [Example 31, N-((4,5-dimethyl-2-thienyl)methyl)-3-hydroxy-9,9-dimethyl-4-oxo-4,6,7,9-tetrahydropyrimido[2,1-c][1,4]oxazine-2-carboxamide]",7.00 to 8.70
9,"Cn1cc(CNC(=O)c2nc3n(c(=O)c2O)CCOC3(C)C)nn1 [Example 25, Pyrimido[2,1-c][1,4]oxazine-2-carboxamide, 4,6,7,9-tetrahydro-3-hydroxy-9,9-dimethyl-N-[(1-methyl-1H-1,2,3-triazol-4-yl)methyl]-4-oxo-]",≤ 6.00
10,"Cc1ccc(CNC(=O)c2nc3n(c(=O)c2O)CCOC3(C)C)s1 [Example 29, Pyrimido[2,1-c][1,4]oxazine-2-carboxamide, 4,6,7,9-tetrahydro-3-hydroxy-9,9-dimethyl-N-[(5-methyl-2-thienyl)methyl]-4-oxo-]",7.00 to 8.70
11,"Cc1ccc(CNC(=O)c2nc3n(c(=O)c2O)CCN(C)C32CCC2)o1 [Example 77, 3′-Hydroxy-8′-methyl-N-((5-methyl-2-furyl)methyl)-4′-oxo-7′,8′-dihydro-4′H,6′H-spiro[cyclobutane-1,9′-pyrazino[1,2-a]pyrimidine]-2′-carboxamide]",7.00 to 8.70
12,"Cc1nc(CNC(=O)c2nc3n(c(=O)c2O)CCOC3(C)C)cs1 [Example 7, Pyrimido[2,1-c][1,4]oxazine-2-carboxamide, 4,6,7,9-tetrahydro-3-hydroxy-9,9-dimethyl-N-[(2-methyl-4-thiazolyl)methyl]-4-oxo-]",6.00 to 7.00
13,"Cc1csc(CNC(=O)c2nc3n(c(=O)c2O)CCOC3(C)C)c1 [Example 30, Pyrimido[2,1-c][1,4]oxazine-2-carboxamide, 4,6,7,9-tetrahydro-3-hydroxy-9,9-dimethyl-N-[(4-methyl-2-thienyl)methyl]-4-oxo-]",7.00 to 8.70
14,"Cc1cc(CNC(=O)c2nc3n(c(=O)c2O)CCOC3(C)C)nn1C [Example 2, Pyrimido[2,1-c][1,4]oxazine-2-carboxamide, N-[(1,5-dimethyl-1H-pyrazol-3-yl)methyl]-4,6,7,9-tetrahydro-3-hydroxy-9,9-dimethyl-4-oxo-]",6.00 to 7.00
15,"CC1(C)OCCn2c1nc(C(=O)NCc1ccc(Cc3ccccc3)o1)c(O)c2=O [Example 27, Pyrimido[2,1-c][1,4]oxazine-2-carboxamide, 4,6,7,9-tetrahydro-3-hydroxy-9,9-dimethyl-4-oxo-N-[[5-(phenylmethyl)-2-furanyl]methyl]]",7.00 to 8.70
16,"CC1(C)OCCn2c1nc(C(=O)NCc1nc3c(s1)CCCCC3)c(O)c2=O [Example 90, 3-Hydroxy-9,9-dimethyl-4-oxo-N-(5,6,7,8-tetrahydro-4H-cyclohepta[d][1,3]thiazol-2-ylmethyl)-4,6,7,9-tetrahydropyrimido[2,1-c][1,4]oxazine-2-carboxamide]",7.00 to 8.70
17,"Cc1cc(CNC(=O)c2nc3n(c(=O)c2O)CCOC3(C)C)n(C)n1 [Example 8, Pyrimido[2,1-c][1,4]oxazine-2-carboxamide, N-[(1,3-dimethyl-1H-pyrazol-5-yl)methyl]-4,6,7,9-tetrahydro-3-hydroxy-9,9-dimethyl-4-oxo-]",6.00 to 7.00
18,"CC1(C)OCCn2c1nc(C(=O)NCc1ccc(C(=O)N3CCOCC3)o1)c(O)c2=O [Example 17, Pyrimido[2,1-c][1,4]oxazine-2-carboxamide, 4,6,7,9-tetrahydro-3-hydroxy-9,9-dimethyl-N-[[5-(4-morpholinylcarbonyl)-2-furanyl]methyl]-4-oxo-]",≤ 6.00
19,"CC1(C)OCCn2c1nc(C(=O)NCC1Cc3ccccc3O1)c(O)c2=O (stereo not drawn) [Example 76, N-(2,3-dihydro-1-benzofuran-2-ylmethyl)-3-hydroxy-9,9-dimethyl-4-oxo-4,6,7,9-tetrahydropyrimido[2,1-c][1,4]oxazine-2-carboxamide]",7.00 to 8.70
20,"Cc1cc(CNC(=O)c2nc3n(c(=O)c2O)CCOC3(C)C)nn1C(C)C [Example 19, Pyrimido[2,1-c][1,4]oxazine-2-carboxamide, 4,6,7,9-tetrahydro-3-hydroxy-9,9-dimethyl-N-[[5-methyl-1-(1-methylethyl)-1H-pyrazol-3-yl]methyl]-4-oxo-]",7.00 to 8.70
21,"CNC(=O)c1ccc(CNC(=O)c2nc3n(c(=O)c2O)CCOC3(C)C)o1 [Example 16, 3-Hydroxy-9,9-dimethyl-N-((5-(methylcarbamoyl)-2-furyl)methyl)-4-oxo-4,6,7,9-tetrahydropyrimido[2,1-c][1,4]oxazine-2-carboxamider]",6.00 to 7.00
22,"Cc1csc(CNC(=O)c2nc3n(c(=O)c2O)CCCC32CCC2)c1 [Example 83, 3′-Hydroxy-N-((4-methyl-2-thienyl)methyl)-4′-oxo-7′,8′-dihydro-4′H,6′H-spiro[cyclobutane-1,9′-pyrido[1,2-a]pyrimidine]-2′-carboxamide]",7.00 to 8.70
23,"Cc1cc(C)n2nc(CNC(=O)c3nc4n(c(=O)c3O)CCOC4(C)C)nc2n1 [Example 21, Pyrimido[2,1-c][1,4]oxazine-2-carboxamide, N-[(5,7-dimethyl[1,2,4]triazolo[1,5-a]pyrimidin-2-yl)methyl]-4,6,7,9-tetrahydro-3-hydroxy-9,9-dimethyl-4-oxo-]",≤ 6.00
24,"CC1(C)OCCn2c1nc(C(=O)NCc1nccs1)c(O)c2=O [Example 5, Pyrimido[2,1-c][1,4]oxazine-2-carboxamide, 4,6,7,9-tetrahydro-3-hydroxy-9,9-dimethyl-4-oxo-N-(2-thiazolylmethyl)-]",≤ 6.00
25,"CC1(C)OCCn2c1nc(C(=O)NCc1ccsc1)c(O)c2=O [Example 36, Pyrimido[2,1-c][1,4]oxazine-2-carboxamide, 4,6,7,9-tetrahydro-3-hydroxy-9,9-dimethyl-4-oxo-N-(3-thienylmethyl)-]",7.00 to 8.70
26,"Cc1cccc(-n2cc(CNC(=O)c3nc4n(c(=O)c3O)CCOC4(C)C)cn2)c1 [Example 91, 3-Hydroxy-9,9-dimethyl-N-((1-(3-methylphenyl)-1H-pyrazol-4-yl)methyl)-4-oxo-4,6,7,9-tetrahydropyrimido[2,1-c][1,4]oxazine-2-carboxamide]",≤ 6.00
27,"Cc1cc(CNC(=O)c2nc3n(c(=O)c2O)CCOC3(C)C)nn1CCF [Example 20, Pyrimido[2,1-c][1,4]oxazine-2-carboxamide, N-[[1-(2-fluoroethyl)-5-methyl-1H-pyrazol-3-yl]methyl]-4,6,7,9-tetrahydro-3-hydroxy-9,9-dimethyl-4-oxo-]",7.00 to 8.70
28,"Pyrimido[2,1-c][1,4]oxazine-2- carboxamide, 4,6,7,9-tetrahydro-3- hydroxy-9,9-dimethyl-N-[(4- methyl-2-phenyl-5- thiazolyl)methyl]-4-oxo- [Example 74]",≤ 6.00
29,"CC1(C)OCCn2c1nc(C(=O)NCc1csc(-c3ccccc3)n1)c(O)c2=O [Example 3, Pyrimido[2,1-c][1,4]oxazine-2-carboxamide, 4,6,7,9-tetrahydro-3-hydroxy-9,9-dimethyl-4-oxo-N-[(2-phenyl-4-thiazolyl)methyl]-]",6.00 to 7.00
30,"Pyrimido[2,1-c][1,4]oxazine-2- carboxamide, N-[(1-ethyl-1H- pyrazol-5-yl)methyl]-4,6,7,9- tetrahydro-3-hydroxy-9,9- dimethyl-4-oxo- [Example 68]",≤ 6.00

# Source: patent US7893055B2, “HIV integrase inhibitors” (priority 2006, dated 2011)
